Measured values taken from ChEMBL document CHEMBL6134848, “Deuteration Strategy-Inspired Design of Novel Diarylpyrimidine Derivatives as Potent Non-Nucleoside Reverse Transcriptase Inhibitors Featuring Improved Efficacy, Selectivity, and Druggability” (J Med Chem, 2025).
pEC50, pIC50: −log10 of the molar value.

Tests used:
[1] = MRT (0 to t) in Sprague-Dawley rat at 1 mg/kg, iv measured for 0.083 to 24 hrs by LC-MS/MS analysis; format: ADME, organism-based; details: in vivo, time 0.083-24 hrs
[2] = tested on: Human immunodeficiency virus 1; assay: Potency index, ratio of ETR EC50 to test compound EC50 for antiviral activity against wild-type HIV-1 IIIB infected in human MT4 cells assessed as protection against virus-induced cytopathicity measured after 5 days post-infection by MTT assay; format: functional
[3] = Stability in human plasma assessed as compound remaining at 1 uM measured after 0.5 hrs by LC-MS/MS analysis; format: ADME, cell-free; details: read-out: Stability
[4] = Cmax in Sprague-Dawley rat at 1 mg/kg, iv measured for 0.083 to 24 hrs by LC-MS/MS analysis; format: ADME, organism-based; details: in vivo, time 0.083-24 hrs
[5] = Stability in human plasma assessed as compound remaining at 1 uM measured immediately by LC-MS/MS analysis; format: ADME, cell-free; details: read-out: Stability
[6] = Oral bioavailability in Sprague-Dawley rat at 10 mg/kg measured for 0.083 to 24 hrs by LC-MS/MS analysis; format: ADME, organism-based; details: in vivo, time 0.083-24 hrs
[7] = Cmax in Sprague-Dawley rat at 10 mg/kg, po measured for 0.083 to 24 hrs by LC-MS/MS analysis; format: ADME, organism-based; details: in vivo, time 0.083-24 hrs
[8] = Metabolic stability in rat liver microsomes assessed as half life at 1 uM measured up to 45 mins by LC/MS/MS analysis; format: ADME, Microsome; details: 0.75 h
[9] = Stability in human plasma assessed as compound remaining at 1 uM measured after 1 hr by LC-MS/MS analysis; format: ADME, cell-free; details: read-out: Stability
[10] = Acute toxicity in ICR mouse assessed as drug tolerance at 2000 mg/kg, IG measured for 14 days; format: organism-based; details: in vivo, po, 336 h, time 14 day
[11] = AUC (0 to infinity) in Sprague-Dawley rat at 1 mg/kg, iv measured for 0.083 to 24 hrs by LC-MS/MS analysis; format: ADME, organism-based; details: in vivo, time 0.083-24 hrs
[12] = target: Cytochrome P450 2C19 (Homo sapiens, UniProt P33261); assay: Inhibition of CYP2C19 in human liver microsomes using S-mephenytoin as substrate incubated for 15 to 45 mins by; format: ADME, Microsome
[13] = tested on: Human immunodeficiency virus 1; assay: Antiviral activity against drug-resistant HIV-1 harboring RT K103N mutant infected in human MT4 cells assessed as protection against virus-induced cytopathicity measured after 5 days post-infection by MTT assay; format: functional, organism-based; details: Human immunodeficiency virus 1, MT4, 120 h
[14] = target: Cytochrome P450 2C9 (Homo sapiens, UniProt P11712); assay: Inhibition of CYP2C9 in human liver microsomes using diclofenac as substrate incubated for 15 to 45 mins by; format: ADME, Microsome
[15] = Acute toxicity in ICR mouse assessed as pathological change in lung at 2000 mg/kg, IG measured for 14 days by H and E staining based analysis; format: organism-based; details: in vivo, po, 336 h, time 14 day
[16] = Stability in human liver microsomes assessed as compound remaining at […] preincubated for 30 mins in ice-water bath followed by incubation at 37 degreeC for 5 mins and further addition of NADPH/UDPGA measured 20.86 mins by LC-MS/MS analysis; format: ADME, Microsome; details: time 55.86 min, read-out: Stability
[17] = Cytotoxicity against human MT4 cells assessed as reduction in cell viability by MTT assay; format: toxicity, cell-based
[18] = Half life in Sprague-Dawley rat at 10 mg/kg, po measured for 0.083 to 24 hrs by LC-MS/MS analysis; format: ADME, organism-based; details: in vivo, time 0.083-24 hrs
[19] = AUC (0 to t) in Sprague-Dawley rat at 1 mg/kg, iv measured for 0.083 to 24 hrs by LC-MS/MS analysis; format: ADME, organism-based; details: in vivo, time 0.083-24 hrs
[20] = Metabolic stability in human liver microsomes assessed as half life at 1 uM measured up to 45 mins by LC/MS/MS analysis; format: ADME, Microsome; details: microsomes, 0.75 h, 1 µM
[21] = target: T1, Cytochrome P450 1A2 (Homo sapiens, UniProt P05177); assay: Inhibition of CYP1A2 in human liver microsomes using phenacetin as substrate incubated for 15 to 45 mins by; format: ADME, Microsome
T1 sequence (P05177 whole entry): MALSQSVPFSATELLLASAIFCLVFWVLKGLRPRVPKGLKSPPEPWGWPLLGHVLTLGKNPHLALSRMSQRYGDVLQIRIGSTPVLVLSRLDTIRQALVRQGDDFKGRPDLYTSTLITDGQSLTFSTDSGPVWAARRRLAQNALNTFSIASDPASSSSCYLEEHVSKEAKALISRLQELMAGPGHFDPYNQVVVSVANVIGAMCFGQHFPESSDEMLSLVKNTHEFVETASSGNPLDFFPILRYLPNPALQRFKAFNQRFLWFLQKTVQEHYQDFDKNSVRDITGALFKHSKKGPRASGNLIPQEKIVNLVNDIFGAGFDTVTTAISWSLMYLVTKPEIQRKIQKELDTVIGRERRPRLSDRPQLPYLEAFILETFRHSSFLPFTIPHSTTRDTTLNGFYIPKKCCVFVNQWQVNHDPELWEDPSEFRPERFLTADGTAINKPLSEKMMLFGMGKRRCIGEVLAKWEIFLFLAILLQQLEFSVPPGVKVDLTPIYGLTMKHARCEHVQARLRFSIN

[22] = MRT (0 to infinity) in Sprague-Dawley rat at 1 mg/kg, iv measured for 0.083 to 24 hrs by LC-MS/MS analysis; format: ADME, organism-based; details: in vivo, time 0.083-24 hrs
[23] = Metabolic stability in dog liver microsomes assessed as half life at 1 uM measured up to 45 mins by LC/MS/MS analysis; format: ADME, Canis lupus familiaris, Microsome; details: microsomes, 0.75 h, 1 µM
[24] = Drug metabolism in human liver microsomes assessed as metabolic fraction at 1 uM measured up to 45 mins by LC/MS/MS analysis; format: ADME, Microsome; details: microsomes, 0.75 h, 1 µM
[25] = tested on: Human immunodeficiency virus 1; assay: Antiviral activity against drug-resistant HIV-1 harboring RT E138K mutant infected in human MT4 cells assessed as protection against virus-induced cytopathicity measured after 5 days post-infection by MTT assay; format: functional, organism-based; details: Human immunodeficiency virus 1, MT4, 120 h
[26] = target: Human immunodeficiency virus type 1 reverse transcriptase (Human immunodeficiency virus 1, UniProt Q72547); assay: Inhibition of recombinant wild type HIV-1 reverse transcriptase incubated for 40 mins in presence of poly(rA) template/oligo(dT)16 primer by Pico-Green dye based analysis
[27] = tested on: Human immunodeficiency virus 1; assay: Potency index, ratio of NVP EC50 to test compound EC50 for antiviral activity against wild-type HIV-1 IIIB infected in human MT4 cells assessed as protection against virus-induced cytopathicity measured after 5 days post-infection by MTT assay; format: functional
[28] = tested on: Human immunodeficiency virus 1; assay: Potency index, ratio of EFV EC50 to test compound EC50 for antiviral activity against wild-type HIV-1 IIIB infected in human MT4 cells assessed as protection against virus-induced cytopathicity measured after 5 days post-infection by MTT assay; format: functional
[29] = Half life in Sprague-Dawley rat at 1 mg/kg, iv measured for 0.083 to 24 hrs by LC-MS/MS analysis; format: ADME, organism-based; details: in vivo, time 0.083-24 hrs
[30] = tested on: Human immunodeficiency virus 1; assay: Antiviral activity against drug-resistant HIV-1 harboring RT Y181C mutant infected in human MT4 cells assessed as protection against virus-induced cytopathicity measured after 5 days post-infection by MTT assay; format: functional, organism-based; details: Human immunodeficiency virus 1, MT4, 120 h
[31] = Stability in human plasma assessed as compound remaining at 1 uM measured after 2 hrs by LC-MS/MS analysis; format: ADME, cell-free; details: read-out: Stability

Cytochrome P450 2C19, sequence (P33261 whole entry): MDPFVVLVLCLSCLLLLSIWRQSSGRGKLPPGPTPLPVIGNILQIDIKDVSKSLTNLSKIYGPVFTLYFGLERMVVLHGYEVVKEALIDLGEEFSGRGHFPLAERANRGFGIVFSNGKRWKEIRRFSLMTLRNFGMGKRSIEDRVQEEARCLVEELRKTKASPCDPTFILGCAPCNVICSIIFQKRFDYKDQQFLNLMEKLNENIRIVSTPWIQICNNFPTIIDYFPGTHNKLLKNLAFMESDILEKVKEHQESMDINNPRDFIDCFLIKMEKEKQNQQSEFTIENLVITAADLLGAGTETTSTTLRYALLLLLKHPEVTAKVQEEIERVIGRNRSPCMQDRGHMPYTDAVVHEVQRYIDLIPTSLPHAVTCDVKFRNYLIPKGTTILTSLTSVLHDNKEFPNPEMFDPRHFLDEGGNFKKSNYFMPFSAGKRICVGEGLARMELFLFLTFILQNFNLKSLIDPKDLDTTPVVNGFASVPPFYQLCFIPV
Cytochrome P450 2C9, sequence (P11712 whole entry): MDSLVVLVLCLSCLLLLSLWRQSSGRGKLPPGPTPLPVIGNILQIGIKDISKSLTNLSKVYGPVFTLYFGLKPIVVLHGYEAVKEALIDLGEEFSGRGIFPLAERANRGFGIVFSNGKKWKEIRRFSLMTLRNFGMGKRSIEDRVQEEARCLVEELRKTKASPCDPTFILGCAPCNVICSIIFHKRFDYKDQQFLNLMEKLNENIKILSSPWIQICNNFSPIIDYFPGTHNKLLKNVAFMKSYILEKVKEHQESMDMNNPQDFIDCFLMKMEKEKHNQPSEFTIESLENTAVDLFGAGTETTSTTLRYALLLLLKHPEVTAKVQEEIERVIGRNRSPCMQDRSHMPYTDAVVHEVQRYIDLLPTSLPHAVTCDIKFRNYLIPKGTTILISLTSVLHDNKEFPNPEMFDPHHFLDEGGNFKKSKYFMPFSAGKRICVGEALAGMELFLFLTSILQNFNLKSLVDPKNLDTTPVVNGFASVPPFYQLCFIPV

[2H]C([2H])([2H])c1cc(C#N)cc(C([2H])([2H])[2H])c1Oc1nc(NC2CCN(Cc3ccc(S(N)(=O)=O)cc3)CC2)nc2ccsc12
MRT last [1]: 49.2 min | Ratio EC50 [2]: 3.3 | remaining at 0.5 h, 1 µM [3]: 98.9% | Cmax [4]: 1240 ng/mL | remaining at 0 h, 1 µM [5]: 100% | bioavailability [6]: 29% | Cmax [7]: 553 ng/mL | t1/2 [8]: 19.2 min | remaining at 1 h, 1 µM [9]: 96.5% | Activity [10]: Non-toxic | AUC(0-inf) [11]: 729 ng·h/mL | pIC50 [12]: < 5.00 | pEC50 [13]: 8.95 | pIC50 [14]: < 5.00 | Activity [15]: Non-toxic | remaining at 0.347667 h [16]: 58.8% | CC50 [17]: > 225000 nM | half-life [18]: 94.8 min | AUC(0-t) [19]: 727 ng·h/mL | t1/2 [20]: 18.6 min | pIC50 [21]: < 5.00 | MRT inf [22]: 50.4 min | t1/2 [23]: 20.4 min | Fm [24]: 14.8% | pEC50 [25]: 8.11 | pIC50 [26]: 6.72 | Ratio EC50 [27]: 256 | Ratio EC50 [28]: 5 | half-life [29]: 58.2 min | pEC50 [30]: 8.23 | remaining at 2 h, 1 µM [31]: 92.7%
